Experimental data from patent US20240336654A1, “ANTIMICROBIAL PEPTIDOMIMETICS” (SPEXIS AG, priority 2021, published 2024).
Read-outs that look alike come from different tables or passages of the source. Where a SMILES comes first, the peptide text is derived from it. Bridges are numbered along the chain shown (N, C = ends). Where no end group is shown, it is not given here. [ ]: non-standard residue; d: D form. The star is where a group is joined. Val(Nα-amidino) = CC(C)[C@H](NC(=N)N)C(=O)*; Hyp = O=C(O)[C@@H]1C[C@@H](O)CN1; Pen = CC(C)(S)[C@H](N)C(=O)O; dDab = NCC[C@@H](N)C(=O)O; Dab = NCC[C@H](N)C(=O)O

Key:
Assay type in all cases: cell-based
[1] = system: Escherichia coli ATCC 25922
In short: (§1)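 MICs were determined by CLSI broth microdilution in cation-adjusted Mueller-Hinton II broth with about 5×10^5 CFU/mL inoculum. Peptides were tested in two-fold serial dilutions with 0.002% polysorbate 80 final. MIC in μg/mL is the lowest concentration with no visible growth after 18-20 h at 35 °C.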

[2] = system: Escherichia coli MCR-1 Af 45
In short: as §1

[3] = system: Klebsiella pneumoniae SSI3010
In short: as §1

[4] = system: human red blood cells (hRBC)
In short: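 Peptides at 200 μg/mL incubated 1 h at 37 °C with 20% (v/v) washed human RBC, shaking. Hemolysis from supernatant OD540, expressed as percent of 2.5% Triton X-100 lysis, with PBS as 0%.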

[5] = red cells of human, 1 h, 200 μg/mL
[6] = Mueller-Hinton broth II, no visible growth after 18-20 hours at 35° C.

| Escherichia coli ATCC 25922 MIC ([1]; ATCC 25922) [µg/mL] | Escherichia coli MCR-1 Af45 MIC ([2]; MCR-1 Af 45) [µg/mL] | Klebsiella pneumoniae SSI3010 MIC ([3]; SSI3010) [µg/mL] | Escherichia coli ATCC 25922 MIC [1, 6] [µg/mL] | Escherichia coli MCR-1 Af45 MIC [2, 6] [µg/mL] | Klebsiella pneumoniae SSI3010 MIC [3, 6] [µg/mL] | Compound | Hemolysis at 0.2 g/L [4, 5] [%] | Hemolysis at 0.2 g/L [4] [%] |
| --- | --- | --- | --- | --- | --- | --- | --- | --- |
| 0.125 | 0.0625 | 0.125 |  |  |  | CC[C@H](C)[C@H](NC(=O)[C@@H]1C[C@@H](O)CN1C(=O)[C@@H](NC(=N)N)C(C)C)C(=O)N[C@H]1CCNC(=O)CC[C@@H](C(=O)N[C@@H](Cc2ccc(O)cc2)C(=O)O)NC(=O)[C@H](CCN)NC(=O)[C@H](CCN)NC(=O)[C@H](CCN)NC(=O)[C@@H](CCN)NC(=O)[C@H]([C@@H](C)O)NC(=O)[C@H](CCN)NC(=O)[C@H](CCCNC(=N)N)NC(=O)[C@H](CC(N)=O)NC(=O)[C@H]([C@@H](C)O)NC(=O)[C@H](Cc2ccc(O)cc2)NC1=O [Example 135, Gua-Val-Hyp-Ile-Dab-Tyr-Thr-Asn-Arg-Dab-Thr-^DDab-Dab-Dab-Dab-Glu-Tyr] ({Val(Nα-amidino)}-[Hyp]I[Dab]YTNR[Dab]T[dDab][Dab][Dab][Dab]EY-OH; lactam 3-14) | <1 |  |
| 0.125 | 0.125 | 0.5 |  |  |  | CC[C@H](C)[C@H](NC(=O)[C@@H]1C[C@@H](O)CN1C(=O)[C@@H](NC(=N)N)C(C)C)C(=O)N[C@H]1CCNC(=O)CC[C@@H](C(=O)N[C@@H](Cc2ccc(O)cc2)C(=O)O)NC(=O)[C@H](CCN)NC(=O)[C@H](CCN)NC(=O)[C@H](C(C)C)NC(=O)[C@@H](CCN)NC(=O)[C@H]([C@@H](C)O)NC(=O)[C@H](CCN)NC(=O)[C@H](CCCNC(=N)N)NC(=O)[C@H](CC(N)=O)NC(=O)[C@H]([C@@H](C)O)NC(=O)[C@H](Cc2ccc(O)cc2)NC1=O [Example 136, Gua-Val-Hyp-Ile-Dab-Tyr-Thr-Asn-Arg-Dab-Thr-^DDab-Val-Dab-Dab-Glu-Tyr] ({Val(Nα-amidino)}-[Hyp]I[Dab]YTNR[Dab]T[dDab]V[Dab][Dab]EY-OH; lactam 3-14) | <1 |  |
|  |  |  | 0.25 | 0.25 | 0.5 | Val-Hyp-Ile-Pen-Tyr-Ser-Asn-Arg-Dab-Thr-^DDab-Lys-Dab-Ser-Cys-Tyr (V[Hyp]I[Pen]YSNR[Dab]T[dDab]K[Dab]SCY; disulfide 4-15) [Example 57] |  | <1 |
